For 9 molecules, MIC results are on record in ChEMBL document CHEMBL5338723, “Emerging Target-Directed Approaches for the Treatment and Diagnosis of Microbial Infections” (J Med Chem, 2023).

In general, MIC refers to the least concentration at which growth counts as inhibited.

Format in all cases: functional
Experiment [1] concerns Acinetobacter baumannii. Put plainly: Antimicrobial activity against Acinetobacter baumannii ATCC 17978 pNT255 assessed as microbial growth inhibition.
Experiment [2] deals with Acinetobacter baumannii. Put plainly: Antimicrobial activity against Acinetobacter baumannii ATCC 17978 pNT165 producing carbapenamase assessed as microbial growth inhibition.
The subject of experiment [3] is Acinetobacter baumannii. As to the kind of experiment: Antimicrobial activity against Acinetobacter baumannii ARC 5079 assessed as microbial growth inhibition.
Experiment [4] deals with Acinetobacter baumannii. Put plainly: Antimicrobial activity against Acinetobacter baumannii ATCC 17961 assessed as microbial growth inhibition.
In experiment [5] the test system is Acinetobacter baumannii. As to the kind of experiment: Antimicrobial activity against Acinetobacter baumannii ARC 3486 assessed as microbial growth inhibition.
Experiment [6] has as its system Acinetobacter baumannii. As to the kind of experiment: Antimicrobial activity against Acinetobacter baumannii ATCC BAA 1797 assessed as microbial growth inhibition.
Experiment [7] deals with Acinetobacter baumannii. Put plainly: Antimicrobial activity against Acinetobacter baumannii ARC 5081 assessed as microbial growth inhibition.
Experiment [8] has as its system Acinetobacter baumannii. Put plainly: Antimicrobial activity against Acinetobacter baumannii ATCC BAA 1800 assessed as microbial growth inhibition.
Experiment [9] relates to Acinetobacter baumannii. As to the kind of experiment: Antimicrobial activity against Acinetobacter baumannii ATCC 17978 pNT320 producing cephalosporinase assessed as microbial growth inhibition.
Experiment [10] deals with Acinetobacter baumannii. As to the kind of experiment: Antimicrobial activity against Acinetobacter baumannii ATCC BAA 1793 assessed as microbial growth inhibition.
For experiment [11], the system named is Acinetobacter baumannii. As to the kind of experiment: Antimicrobial activity against Acinetobacter baumannii ATCC 17978 pNT221 assessed as microbial growth inhibition.
In experiment [12] the test system is Acinetobacter baumannii. Put plainly: Antimicrobial activity against Acinetobacter baumannii ATCC 17978 assessed as microbial growth inhibition.
The test system of experiment [13] is Acinetobacter baumannii. Put plainly: Antimicrobial activity against Acinetobacter baumannii ARC 3484 assessed as microbial growth inhibition.
The test system of experiment [14] is Acinetobacter baumannii. Put plainly: Antimicrobial activity against Acinetobacter baumannii ATCC BAA 1710 assessed as microbial growth inhibition.
Experiment [15] relates to Acinetobacter baumannii. As to the kind of experiment: Antimicrobial activity against Acinetobacter baumannii ATCC 17978 assessed as microbial growth inhibition under iron-deficient condition.
The test system of a further experiment is Salmonella enteritidis. As to the kind of experiment: Antimicrobial activity against Salmonella enterica subsp. enterica serovar Enteritidis assessed as increase in microbial growth inhibition.
The test system of the next experiment is Salmonella typhimurium. Put plainly: Antimicrobial activity against Salmonella enterica subsp. enterica serovar Typhimurium assessed as increase in microbial growth inhibition.
Experiment [16] concerns Staphylococcus aureus. Put plainly: Antimicrobial activity against methicillin-resistant Staphylococcus aureus ATCC 33591 assessed as microbial growth inhibition.
The subject of a further experiment is Enterococcus faecium. As to the kind of experiment: Antimicrobial activity against vancomycin-resistant Enterococcus faecium ATCC 51559 assessed as microbial growth inhibition.
Experiment [17] concerns Staphylococcus aureus. Put plainly: Antimicrobial activity against vancomycin intermediate Staphylococcus aureus assessed as microbial growth inhibition.
A further experiment relates to Enterococcus faecalis. As to the kind of experiment: Antimicrobial activity against vancomycin-resistant Enterococcus faecalis ATCC 51575 assessed as microbial growth inhibition.
In experiment [18] the test system is Mycobacterium tuberculosis. As to the kind of experiment: Antimicrobial activity against Mycobacterium tuberculosis H37Rv assessed as microbial growth inhibition.
The subject of experiment [19] is Pseudomonas aeruginosa. As to the kind of experiment: Antibacterial activity against Pseudomonas aeruginosa Pa4 assessed as microbial growth inhibition incubated for 20 hrs in iron depleted media by CLSI protocol based broth microdilution method. (In broth dilution the organism is exposed to a series of concentrations in liquid medium.)
Experiment [20] has as its system Pseudomonas aeruginosa. Put plainly: Antibacterial activity against Wild type Pseudomonas aeruginosa KW799 assessed as microbial growth inhibition incubated for 20 hrs in iron depleted media by CLSI protocol based broth microdilution method.
For experiment [21], the system named is Pseudomonas aeruginosa. Put plainly: Antibacterial activity against Pseudomonas aeruginosa PAO1 assessed as microbial growth inhibition incubated for 20 hrs in iron depleted media by CLSI protocol based broth microdilution method.
The test system of experiment [22] is Pseudomonas aeruginosa. As to the kind of experiment: Antibacterial activity against Pseudomonas aeruginosa KW799/61 assessed as microbial growth inhibition incubated for 20 hrs in iron depleted media by CLSI protocol based broth microdilution method.

The structures appear in SMILES notation. In brackets after ≈: the same amount, converted by molar mass.

As to `CCCCCCCCCC(=O)N[C@@H](Cc1c[nH]c2ccccc12)C(=O)N[C@H](CC(N)=O)C(=O)N[C@@H](CC(=O)O)C(=O)N[C@@H]1C(=O)NCC(=O)N[C@@H](CCCNC(=O)CN(CCCCNC(=O)c2cccc(O)c2O)C(=O)c2cccc(O)c2O)C(=O)N[C@@H](CC(=O)O)C(=O)N[C@H](C)C(=O)N[C@@H](CC(=O)O)C(=O)NCC(=O)N[C@H](CO)C(=O)N[C@@H](C(C)CC(=O)O)C(=O)N[C@@H](CC(=O)c2ccccc2N)C(=O)O[C@@H]1C` (stereo partly specified), the minimum inhibitory concentration (MIC) in the experiment with Acinetobacter baumannii [1], in the experiment on Acinetobacter baumannii [2], with Acinetobacter baumannii [3], in the experiment on Acinetobacter baumannii [4], in the experiment with Acinetobacter baumannii [5] and in the experiment on Acinetobacter baumannii [6] was 0.2 µM (≈ 0.404 µg/mL) throughout. Besides, the MIC in the experiment on Acinetobacter baumannii [7], with Acinetobacter baumannii [8], in the experiment with Acinetobacter baumannii [9], in the experiment with Acinetobacter baumannii [10], in the experiment with Acinetobacter baumannii [11] and with Acinetobacter baumannii [12] was 0.2 µM (≈ 0.404 µg/mL) in each case. In addition, the MIC with Acinetobacter baumannii [13] and in the experiment with Acinetobacter baumannii [14] was 0.2 µM (≈ 0.404 µg/mL) in each case.
Take `C[C@H]1OC(c2cccc(O)c2O)=N[C@@H]1C(=O)N[C@@H](COC(=O)c1cc(N[C@@H](C(=O)N[C@@H]2C(=O)N3C(C(=O)O)=C(Cl)CS[C@H]23)c2ccccc2)cc(O)c1O)C(=O)NCCCCN(O)C=O`: in the experiment on Acinetobacter baumannii [15], the minimal inhibitory concentration (MIC) is 0.5 µg/mL (≈ 0.532 µM).
On to `CC1=C(C(=O)O)N2C(=O)[C@@H](NC(=O)[C@H](NC(=O)CCCc3cn(CCOCCOCCOCCNC(=O)c4cc(O)c(O)c(C(=O)N[C@H]5COC(=O)[C@@H](NC(=O)c6cc([C@@H]7O[C@H](CO)[C@@H](O)[C@H](O)[C@H]7O)cc(O)c6O)COC(=O)[C@@H](NC(=O)c6cc([C@@H]7O[C@H](CO)[C@@H](O)[C@H](O)[C@H]7O)cc(O)c6O)COC5=O)c4)nn3)c3ccccc3)[C@H]2SC1`, for which the MIC in the experiment on Salmonella enteritidis and in the experiment with Salmonella typhimurium was 0.01 µM in each case.
For the molecule `C[C@@H](O)[C@H]1C(=O)N2C(C(=O)O)=C(S[C@H]3C[C@@H](C(=O)N(C)C)N(C(=O)CCCc4cn(CCOCCOCCOCCNC(=O)c5cc(O)c(O)c(C(=O)N[C@H]6COC(=O)[C@@H](NC(=O)c7cc([C@@H]8O[C@H](CO)[C@@H](O)[C@H](O)[C@H]8O)cc(O)c7O)COC(=O)[C@@H](NC(=O)c7cc([C@@H]8O[C@H](CO)[C@@H](O)[C@H](O)[C@H]8O)cc(O)c7O)COC6=O)c5)nn4)C3)[C@H](C)[C@H]12`, the MIC with Salmonella enteritidis and with Salmonella typhimurium was 0.01 µM throughout.
In the case of `CC1(C)S[C@@H]2[C@H](NC(=O)[C@H](NC(=O)CCCc3cn(CCOCCOCCOCCNC(=O)c4cc(O)c(O)c(C(=O)N[C@H]5COC(=O)[C@@H](NC(=O)c6cccc(O)c6O)COC(=O)[C@@H](NC(=O)c6cccc(O)c6O)COC5=O)c4)nn3)c3ccccc3)C(=O)N2[C@H]1C(=O)O`, the minimal inhibitory concentration (MIC) in the experiment with Salmonella enteritidis and with Salmonella typhimurium was 0.01 µM each time.
On to `CCCCCCCCCCN[C@@]1(C)C[C@H](O[C@H]2[C@H](Oc3c4cc5cc3Oc3ccc(cc3Cl)[C@@H](O)[C@@H](NC(=O)[C@@H](CC(C)C)NC)C(=O)N[C@@H](CC(N)=O)C(=O)N[C@H]5C(=O)N[C@H]3C(=O)N[C@H](C(=O)N[C@H](C(=O)NCCCNC(=O)[C@H](O)[C@@H](O)[C@H](O[C@H]5O[C@@H](CO)[C@@H](O)[C@@H](O)[C@@H]5O)[C@H](O)CO)c5cc(O)cc(O)c5-c5cc3ccc5O)[C@H](O)c3ccc(c(Cl)c3)O4)O[C@H](CO)[C@@H](O)[C@@H]2O)O[C@@H](C)[C@H]1O`, for which the minimal inhibitory concentration (MIC) in the experiment on Staphylococcus aureus [16], in the experiment on Enterococcus faecium, with Staphylococcus aureus [17] and in the experiment with Enterococcus faecalis was 0.2 µM (≈ 0.397 µg/mL) throughout.
For `Oc1nc2ccccc2nc1O`, the minimum inhibitory concentration (MIC) in experiment [18] is greater than 59.2 µM.
`N[C@@H](C(=O)N[C@@H]1C(=O)N2C(C(=O)O)=C(Cl)CS[C@H]12)c1ccccc1` [CEFACLOR ANHYDROUS]: the minimal inhibitory concentration (MIC) in the experiment with Acinetobacter baumannii [15] came to 64 µg/mL (≈ 174 µM).
As for `CC(=O)Oc1cccc(C(=O)NCCCC(CCCNC(=O)c2cccc(OC(C)=O)c2OC(C)=O)(CCCNC(=O)c2cccc(OC(C)=O)c2OC(C)=O)NC(=O)CCC(=O)NC(C(=O)NC2C(=O)N3C2SC(C)(C)[C@@H]3C(=O)O)c2ccc(O)cc2)c1OC(C)=O` (stereo partly specified), the minimum inhibitory concentration (MIC) in the experiment on Pseudomonas aeruginosa [19], in the experiment on Pseudomonas aeruginosa [20], in the experiment on Pseudomonas aeruginosa [21] and in the experiment on Pseudomonas aeruginosa [22] was 0.05 µM (≈ 0.0655 µg/mL) throughout.
